Assay [1] deals with T1, Human immunodeficiency virus type 1 integrase (Human immunodeficiency virus 1, UniProt Q7ZJM1). Nature of the assay: Inhibitory activity against 3' processing by HIV integrase.
In assay [2] the target is T1, Human immunodeficiency virus type 1 integrase. Nature of the assay: Inhibitory activity against DNA strand transfer by HIV integrase.

SMILES strings stand for the structures.

T1 sequence (Q7ZJM1 whole entry): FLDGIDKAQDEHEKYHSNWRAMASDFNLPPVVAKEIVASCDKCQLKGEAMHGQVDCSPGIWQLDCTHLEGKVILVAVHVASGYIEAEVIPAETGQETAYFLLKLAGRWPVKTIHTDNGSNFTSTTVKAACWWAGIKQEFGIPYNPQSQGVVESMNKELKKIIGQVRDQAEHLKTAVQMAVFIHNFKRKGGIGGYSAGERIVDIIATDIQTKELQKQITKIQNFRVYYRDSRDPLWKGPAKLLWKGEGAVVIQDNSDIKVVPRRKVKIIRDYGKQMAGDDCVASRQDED

With `CC(=O)Oc1cc(S(=O)(=O)Nc2nnc(Nc3ccc(C)cc3)[nH]2)c(S)cc1Cl`, the IC50 is 7.59 µM in assay [1] and 10 µM in assay [2].

Regarding `Cc1cc(S(=O)(=O)Nc2nnc3ccc4ccccc4n23)c(S)cc1Cl`, the results for the IC50 in assay [1] and in assay [2] were 12.9 µM and 7.41 µM, respectively.

On to `Cc1cc(S(=O)(=O)NC2=NCCCN2)c(S)cc1Cl`, for which the IC50 in assay [1] is 148 µM; in assay [2], 145 µM.

As for `Cc1cc(S(=O)(=O)Nc2nnc3c(C(F)(F)F)cc(Cl)cn23)c(S)cc1Cl`, the IC50 is 10.7 µM in assay [1] and 24 µM in assay [2].

Consider `O=C1NC(=S)SC1NS(=O)(=O)c1ccc(-c2ncccn2)cc1` (configuration not stated), for which the figures for the IC50 in assay [1] and in assay [2] were 28.8 µM and 14.1 µM, respectively.

Consider `Cc1cc2c(cc1Cl)SC(C1C(=O)NC(=S)NC1=O)NS2(=O)=O` (configuration not stated), for which the IC50 in assay [1] is 60.3 µM; in assay [2], 50.1 µM. Regarding `CC1=NN(c2ccccc2)C(=O)C1/N=N/c1ccc(S(=O)(=O)Nc2scc(C)c2C)cc1` (configuration not stated), the IC50 in assay [1] was 129 µM; in assay [2], 107 µM. As for `CCCCn1cnnc1NS(=O)(=O)c1cc(C(N)=O)c(Cl)cc1SCC(=O)O`, the IC50 in assay [1] and in assay [2] was 417 µM each time. Take `Cc1cc(S(=O)(=O)Nc2nc(Nc3ccc(Cl)cc3)nn2C)c(S)cc1Cl`: the IC50 in assay [1] is 16.2 µM; in assay [2], 17.8 µM. For the compound `Cc1cc(S(=O)(=O)Nc2nc(N)nc(N(C)C)n2)c(S)cc1Cl`, the IC50 in assay [1] is 77.6 µM; in assay [2], 41.7 µM. With `CCCCn1cnnc1NS(=O)(=O)c1cc(C(=O)NCc2ccccc2)c(Cl)cc1S`, the results for the IC50 in assay [1] and in assay [2] were 89.1 µM and 70.8 µM, respectively. Turning to `Cc1cc(S(=O)(=O)Nc2nnc3cnc4ccccc4n23)c(S)cc1Cl`, the IC50 in assay [1] was 31.6 µM; in assay [2], 8.32 µM.

With `NS(=O)(=O)c1ccc(/N=N/C2Sc3nc4ccccc4n3C2=O)cc1` (configuration not stated), the IC50 in assay [1] is 209 µM; in assay [2], 126 µM. The matching figures for `Cc1cc2c(cc1Cl)SC(C1C(=O)NC(=O)NC1=O)NS2(=O)=O` (configuration not stated): 60.3 µM and 60.3 µM. The matching figures for `Cc1cc(S(=O)(=O)Nc2nc3ccccc3nc2-c2ccc(Br)cc2)c(S)cc1Cl`: 12.3 µM and 7.94 µM. As for `Cc1cc(S(=O)(=O)Nc2nc(Nc3ccccc3)nn2C)c(S)cc1Cl`, the IC50 is 27.5 µM in assay [1] and 15.8 µM in assay [2]. As to `Cc1cc(S(=O)(=O)Nc2nnc3cc(C(F)(F)F)cc(C)n23)c(S)cc1Cl`, the IC50 in assay [1] was 18.6 µM; in assay [2] it was 11 µM.

Consider `Cc1cc(S(=O)(=O)Nc2nc(N)n(-c3ccccn3)n2)c(S)cc1Cl`, for which the IC50 in assay [1] is 14.5 µM; in assay [2], 22.9 µM. On to `Cc1ccc(Nc2nc(NS(=O)(=O)c3cc(C)c(Cl)cc3S)n(C)n2)cc1`, for which the IC50 was 23.4 µM in assay [1] and 19.1 µM in assay [2]. With `Cc1cc(S(=O)(=O)NC(=NN)NNc2cccc(C(F)(F)F)n2)c(S)cc1Cl`, the IC50 is 87.1 µM in assay [1] and 100 µM in assay [2]. For `Cc1cc(S(=O)(=O)Nc2nnc3c4c(C)csc4ncn23)c(S)cc1Cl`, the IC50 was 3.63 µM in assay [1] and 3.47 µM in assay [2]. For `CCOC(=O)C(C#N)C1NS(=O)(=O)c2cc(C)c(Cl)cc2S1` (configuration not stated), the IC50 in assay [1] is 331 µM; in assay [2], 112 µM. Turning to `Cc1cc(C(F)(F)F)cc(-n2nc(NS(=O)(=O)c3cc(C)c(Cl)cc3S)nc2N)n1`, the IC50 is 9.33 µM in assay [1] and 6.31 µM in assay [2].

On to `O=C(Nc1ccccc1)c1cc(S(=O)(=O)Nc2nncn2-c2ccc(Cl)cc2)c(S)cc1Cl`, for which the IC50 in assay [1] is 6.03 µM; in assay [2] it was 12 µM. As to `Cc1cc(S(=O)(=O)Nc2nnc(Nc3ccccc3)[nH]2)c(S)cc1Cl`, the IC50 in assay [1] is 16.2 µM; in assay [2] it was 12.6 µM. As for `Cc1cc2c(cc1Cl)SC(C(C#N)C(=O)c1ccccc1)NS2(=O)=O` (configuration not stated), the results for the IC50 in assay [1] and in assay [2] were 200 µM and 112 µM, respectively. For the compound `Cc1cc(S(=O)(=O)Nc2nnc3c4scc(C)c4ncn23)c(S)cc1Cl`, the figures for the IC50 in assay [1] and in assay [2] were 9.33 µM and 7.41 µM, respectively. Consider `O=S(=O)(Nc1ccccn1)c1ccc(/N=N/c2cnc(O)c(O)c2)cc1`, for which the IC50 was 60.3 µM in assay [1] and 58.9 µM in assay [2]. As to `Cc1cc2c(cc1Cl)SC(C(C#N)C#N)NS2(=O)=O` (configuration not stated), the IC50 in assay [1] was 708 µM; in assay [2] it was 603 µM. On to `O=S(=O)(Nc1nnc2c3ccccc3cnn12)c1ccc(Cl)cc1S`, for which the IC50 in assay [1] was 28.8 µM; in assay [2], 38.9 µM. The like results for `Cc1cc(S(=O)(=O)Nc2nc(N)n(-c3ccccc3)n2)c(S)cc1Cl` were, in that order, 10.7 µM and 13.2 µM.

For the compound `Cc1ccc(-n2cnnc2NS(=O)(=O)c2cc(C(=O)Nc3ccc(Cl)cc3)c(Cl)cc2S)cc1`, the IC50 in assay [1] and in assay [2] was 3.98 µM each time. On to `O=C(Nc1ccc(Cl)cc1)c1cc(S(=O)(=O)Nc2nncn2-c2ccc(F)cc2)c(S)cc1Cl`, for which the IC50 in assay [1] and in assay [2] was 37.2 µM throughout. On to `Cc1cc(S(=O)(=O)Nc2n[nH]c(-c3ccc(Cl)cn3)n2)c(S)cc1Cl`, for which the IC50 in assay [1] was 8.91 µM; in assay [2] it was 10.2 µM. Turning to `CCCCn1cnnc1NS(=O)(=O)c1cc(C(=O)Nc2ccc(C)cc2)c(Cl)cc1S`, the IC50 is 60.3 µM in assay [1] and 33.9 µM in assay [2]. The like results for `CCN(c1ccccc1)c1nc(N)nc(NS(=O)(=O)c2cc(C)c(Cl)cc2S)n1` were, in that order, 17.4 µM and 24.5 µM.

Turning to `Cc1cc(S(=O)(=O)Nc2nnc3c(Cl)cc(C(F)(F)F)cn23)c(S)cc1Cl`, the IC50 in assay [1] is 17.8 µM; in assay [2], 20.9 µM. `Cc1cnc(NS(=O)(=O)c2ccc(/N=N/c3cc4ccccc4cc3O)cc2)s1`: the IC50 in assay [1] was 38.9 µM; in assay [2], 50.1 µM. The like results for `CC1=NNC(=O)C1/N=N/c1ccc(S(=O)(=O)Nc2nccs2)cc1` (configuration not stated) were, in that order, 70.8 µM and 61.7 µM. The matching figures for `O=C(Nc1ccccc1)c1cc(S(=O)(=O)Nc2nncn2-c2ccc(F)cc2)c(S)cc1Cl`: 45.7 µM and 50.1 µM. Turning to `Cc1cc2nc3nc(N)nc(NS(=O)(=O)c4cc(C)c(Cl)cc4S)n3c2cc1C`, the IC50 in assay [1] is 5.5 µM; in assay [2], 4.27 µM. As for `Cc1ccc(NC(=O)c2cc(S(=O)(=O)Nc3nncn3CC(C)C)c(S)cc2Cl)cc1`, the IC50 in assay [1] is 75.9 µM; in assay [2], 100 µM. The matching figures for `Cc1cc(S(=O)(=O)Nc2nc3ccccc3nc2-c2ccc(Cl)cc2)c(S)cc1Cl`: 20 µM and 12 µM.

Take `COc1ccc(Nc2n[nH]c(NS(=O)(=O)c3cc(C)c(Cl)cc3S)n2)cc1`: the IC50 was 15.5 µM in assay [1] and 14.1 µM in assay [2].

`CCCn1cnnc1NS(=O)(=O)c1cc(C(=O)Nc2ccc(C)cc2)c(Cl)cc1S`: the IC50 was 40.7 µM in assay [1] and 39.8 µM in assay [2]. With `CC(C)Cn1cnnc1NS(=O)(=O)c1cc(C(=O)Nc2ccc(Cl)cc2)c(Cl)cc1S`, the IC50 in assay [1] was 38 µM; in assay [2], 39.8 µM. The like results for `Cc1ccc(NC(=O)c2cc(S(=O)(=O)Nc3nncn3Cc3ccccc3)c(S)cc2Cl)cc1` were, in that order, 8.91 µM and 7.94 µM. As for `CCCn1cnnc1NS(=O)(=O)c1cc(C(=O)Nc2ccc(C)cc2)c(Cl)cc1SCC(=O)O`, the IC50 in assay [1] and in assay [2] was 43.7 µM throughout. `COC(=O)CSc1cc(Cl)c(C)cc1S(=O)(=O)Nc1nnc(N)[nH]1` gave an IC50 in assay [1] of 200 µM.

The values are drawn from ChEMBL document CHEMBL1148381, “Application of CoMFA and CoMSIA 3D-QSAR and docking studies in optimization of mercaptobenzenesulfonamides as HIV-1 integrase inhibitors” (J Med Chem, 2004).
